Results taken from US20030171377A1, “Antidiabetic agents” (priority 2001, published 2003).

How the values were obtained:
3T3-L1 preadipocytes = assay: 3T3-L1 Adipocyte Differentiation Assay (ADPDIFF), Test A; type: cell-based; details: BODIPY lipid fluorescence, reported as % of BRL 49653 at 5 μM
[1] = Blood Glucose Measurement (Glucose Δ), Test D; type: in vivo, mice; parameters: key to Glucose Δ: change in blood glucose, mg/dL; details: for Glucose Δ: 4 hours post dose, 4 hour fasted animals, tail vein whole blood; for % BRL (in vivo, beside Glucose Δ): glucose change relative to BRL
Procedure: Test D—Blood Glucose Measurement (Glucose Δ) Glucose is obtained 4 hours post dose via tail vein stick (5 μl whole blood) in awake, 4 hour fasted animals. Blood is drawn by capillary action into a glucose cuvette and read in a HemoCue Glucose Analyzer (Ryan Diagnostics). Blood is diluted 1:2 with saline if glucose levels are greater than 400 mg/dl (meter high range) and results multiplied by two.

[2] = system: endogenous nuclear receptors in CV-1 cells; assay: CV-1 Native Receptors Transcription Assay (MKNRCV1), Test C; type: cell-based, African green monkey; details: for MKNRCV1 % BRL @ 25 μM: percent activity of BRL 49653; for EC50: Chlorocebus sabaeus, CV-1 cells, 48 hours, unit inferred
[3] = system: CV-1 cells (FATP promoter luciferase reporter, 300 nM BRL); assay: ANTCV1 Antagonist Transcription Assay, Test B; type: cell-based, African green monkey; details: Chlorocebus sabaeus, 25 μM test compound with 300 nM BRL, 48 hrs, % BRL inhibition, read-out: ANTCV1 INHIB @ 25 μM

melting point [°C]	Compound	further results
143 to 144	Cc1oc(-c2ccccc2)nc1CCOc1cc(CC(C(=O)O)n2cccc2)on1 (centres unmarked) [Example 77, 3-{3-[2-(5-Methyl-2-phenyl-oxazol-4-yl)-ethoxy]-isoxazol-5-yl}-2-pyrrol-1-yl-propionic acid]	–
133 to 134	Cc1oc(-c2ccccc2)nc1CCOc1ccc(CC(C)(C)C(=O)O)cc1 [Example 40, 2,2-Dimethyl-3-{4-[2-(5-methyl-2-phenyl-oxazol-4-yl)-ethoxy]-phenyl}-propionic acid]	–
157 to 159	Cc1oc(-c2ccccc2)nc1CCOc1cccc2c1ccn2C(C)C(=O)O (centres unmarked) [Example 65, 2-(4-[2-(5-Methyl-2-phenyl-oxazol-4-yl)-ethoxy]-indol-1-yl)-propionic acid]	–
110 to 112	CC(=O)c1cccn1[C@@H](Cc1ccc(OCCc2nc(-c3ccccc3)oc2C)cc1)C(=O)O [Example 14, (S)-2-(2-Acetyl-pyrrol-1-yl)-3-{4-[2-(5-methyl-2-phenyl-oxazol-4-yl)-ethoxy]-phenyl}-propionic acid]	–
124.1 to 125	Cc1oc(-c2ccccc2)nc1CCOc1ccc(C[C@@H](C(=O)O)c2ccccc2)cc1 [Example 36, 3-{4-[2-(5-Methyl-2-phenyl-oxazol-4-yl)-ethoxy]-phenyl}-2-phenyl-propionic acid (R)]	–
146 to 147	Cc1oc(-c2ccccc2)nc1CCOc1ccc(C[C@@H](C(=O)O)c2cccs2)cc1 (stereo in doubt) (hydrate or solvate) [Example 32, 3-{4-[2-(5-Methyl-2-phenyl-oxazol-4-yl)-ethoxy]-phenyl}-2-thiophen-2-yl-propionic acid]	–
187 to 188	Cc1oc(-c2ccccc2)nc1CCOc1ccc(C[C@@H](C(=O)O)n2cccc2C(=O)C(F)(F)F)cc1 [Example 12, (S)-3-{4-[2-(5-Methyl-2-phenyl-oxazol-4-yl)-ethoxy]-phenyl}-2-[2-(2,2,2-trifluoro-acetyl)-pyrrol-1-yl]-propionic acid]	–
169 to 171	Cc1oc(-c2ccccc2)nc1CCCc1ccc(CC(C(=O)O)n2cncn2)cc1 (centres unmarked) [Example 94]	–
157 to 158	Cc1sc(-c2ccccc2)nc1CCOc1ccc(C[C@@H](C(=O)O)n2cccc2)cc1 [Example 18, (S)-3-{4-[2-(5-Methyl-2-phenyl-thiazol-4-yl)-ethoxy]-phenyl}-2-pyrrol-1-yl-propionic acid]	–
112 to 113	Cc1oc(-c2ccccc2)nc1CCOc1ccc(CC(C)(C)C(=O)NS(C)(=O)=O)cc1 [Example 75, N-(2,2-Dimethyl-3-{4-[2-(5-methyl-2-phenyl-oxazol-4-yl)-ethoxy]-phenyl}-propionyl)-methanesulfonamide]	–
149.5 to 150.5	Cc1oc(-c2ccccc2)nc1CCOc1ccc(C[C@@](C)(C(=O)O)n2cccc2)cc1 [Example 52]	–
178 to 179	Cc1oc(-c2ccccc2)nc1CCOc1ccc(CC(C)(C(=O)O)c2ccccc2)cc1 (centres unmarked) [Example 39, 2-Methyl-3-{4-[2-(5-methyl-2-phenyl-oxazol-4-yl)-ethoxy]-phenyl}-2-phenyl-propionic acid]	–
201 to 203	Cc1oc(-c2ccccc2)nc1CCOc1ccc(CC(C(=O)O)(n2cccc2)C(F)(F)F)cc1 (centres unmarked) [Example 159, 3,3,3-Trifluoro-2-{4-[2-(5-methyl-2-phenyl-oxazol-4-yl)-ethoxy]-benzyl}-2-pyrrol-1-yl-propionic acid]	–
146 to 147	Cc1oc(-c2ccccc2)nc1CCOc1ccc(C[C@@H](C(=O)O)n2ccc(-c3ccccc3)c2)cc1 [Example 4, (S)-3-{4-[2-(5-Methyl-2-phenyl-oxazol-4-yl)-ethoxy]-phenyl}-2-(3-phenyl-pyrrol-1-yl)-propionic acid]	–
95 to 100	O=C(O)[C@H](Cc1ccc(CCCN2CCC(c3ccccc3)CC2)cc1)n1cccc1 [Example 131c, (S)-3-{4-[3-(4-Phenyl-piperidin-1-yl)-propyl]-phenyl}-2-pyrrol-1-yl-propionic acid]	–
201 to 203	O=C(O)[C@H](Cc1ccc(C#CCN2CCC(c3ccccc3)CC2)cc1)n1cccc1 [Example 121c, (S)-3-{4-[3-(4-Phenyl-piperidin-1-yl)-prop-1-ynyl]-phenyl}-2-pyrrol-1-yl-propionic acid]	–
118 to 120	Cc1oc(-c2ccccc2)nc1CCOc1ccc(CC(F)(C(=O)NS(C)(=O)=O)c2ccccc2)cc1 (centres unmarked) [Example 76, N-(2-Fluoro-3-{4-[2-(5-methyl-2-phenyl-oxazol-4-yl)-ethoxy]-phenyl}-2-phenyl-propionyl)-methanesulfonamide]	–
90 to 92	Cc1oc(-c2ccccc2)nc1CCC(=O)c1ccc(C[C@@H](C(=O)O)n2cccc2)cc1 (stereo in doubt) [Example 31, 3-{4-[3-(5-Methyl-2-phenyl-oxazol-4-yl)-propionyl]-phenyl}-2-pyrrol-1-yl-propionic acid]	–
165 to 166	Cc1oc(-c2ccccc2)nc1CCOc1ccc(CC(C)(C(=O)O)c2cccs2)cc1 (centres unmarked) [Example 73, 2-Methyl-3-{4-[2-(5-methyl-2-phenyl-oxazol-4-yl)-ethoxy]-phenyl}-2-thiophen-2-yl-propionic acid]	–
114.7 to 116.6	COc1ccc(C(Cc2ccc(OCCc3nc(-c4ccccc4)oc3C)cc2)C(=O)O)cc1 (centres unmarked) [Example 37, 2-(4-Methoxy-phenyl)-3-{4-[2-(5-methyl-2-phenyl-oxazol-4-yl)-ethoxy]-phenyl}-propionic acid]	–
90 to 92	Cc1oc(-c2ccccc2)nc1CCC(=O)c1ccc(CC(C(=O)O)n2cccc2)cc1 (centres unmarked) [Example 44, 3-{4-[3-(5-Methyl-2-phenyl-oxazol-4-yl)-propionyl]-phenyl}-2-pyrrol-1-yl-propionic acid]	–
126 to 130	O=C(O)[C@H](Cc1ccc(/C=C/CN2CCC(c3ccccc3)CC2)cc1)n1cccc1 [Example 129d, (S)-3-{4-[(E)-3-(4-Phenyl-piperidin-1-yl)-propenyl]-phenyl}-2-pyrrol-1-yl-propionic acid]	–
165 to 166	Cc1oc(-c2ccccc2)nc1CCOc1ccc(CC(C)(C(=O)O)c2ccsc2)cc1 (centres unmarked) [Example 74, 2-Methyl-3-{4-[2-(5-methyl-2-phenyl-oxazol-4-yl)-ethoxy]-phenyl}-2-thiophen-3-yl-propionic acid]	–
–	Cc1oc(-c2ccccc2)nc1CCOc1ccc(CC(C(=O)O)n2ccc(C(=O)c3ccccc3)c2)cc1 (centres unmarked)	ADPDIFF % BRL @ 5 μM (3T3-L1 preadipocytes): 102 % BRL; Glucose Δ [1]: −84.4; % BRL (in vivo, beside Glucose Δ) [1]: 60.8 % BRL; MKNRCV1 % BRL @ 25 μM [2]: 91 % BRL; EC50 [2]: 2.2 µM; inhibition at 25 µM [3]: -20%
–	Cc1oc(-c2ccccc2)nc1CCOc1ccc(CC(C(=O)O)c2cccnc2)cc1.Cl (centres unmarked)	ADPDIFF % BRL @ 5 μM (3T3-L1 preadipocytes): 132 % BRL; Glucose Δ [1]: −72.5; % BRL (in vivo, beside Glucose Δ) [1]: 31.1 % BRL; MKNRCV1 % BRL @ 25 μM [2]: 58 % BRL; EC50 [2]: 0.4 µM; inhibition at 25 µM [3]: -112%
–	CN(CC#Cc1ccc(C[C@@H](C(=O)O)n2cccc2)cc1)c1ccccc1	ADPDIFF % BRL @ 5 μM (3T3-L1 preadipocytes): 83 % BRL; Glucose Δ [1]: 182.8; % BRL (in vivo, beside Glucose Δ) [1]: −55.3 % BRL; MKNRCV1 % BRL @ 25 μM [2]: 92 % BRL; EC50 [2]: 2.9 µM; inhibition at 25 µM [3]: -31%
